Results from US8242087B2, “Phosphate modified nucleosides useful as substrates for polymerases and as antiviral agents” (priority 2007, dated 2012).

Key:
[1] = target: T1, HIV reverse transcriptase (HIV RT) (Human immunodeficiency virus type 1 group M subtype B, UniProt P03366); experiment: Single nucleotide incorporation by HIV RT, gel-based, P1/T1 (Examples 2-3); format: biochemical, HIV-1
T1 construct: HIV RT polymerase was purchased from GE Healthcare; purchased GE Healthcare (Amersham Bioscience)
Experimental: A typical single nucleotide incorporation and primer extension assays using HIV RT polymerase was carried out similar to one described in the literature. HIV RT polymerase was purchased from GE Healthcare and was supplied as either 12 or 30 U/μL stock solution. The final concentration of HIV RT in a reaction mixture was 0.03-0.003 U/μL. A primer/template duplex mixture was prepared by combining appropriate amounts of a 5′-^33P-labeled primer (P1) and a template in 1:2 molar ratio to provide a 4× solution with 0.5 μM primer concentration. The polymerase reactions were carried out in a 5×RT buffer containing 250 mM TRIS.HCL, 250 mM KCl, 50 mM MgCl2, 2.5 mM spermidine, 50 mM DTT, pH 8.3. For the single nucleotide incorporation assay, a P1/T1 primer-template pair was used whereas the primer extension study was performed with P1/T3 and P1/T5 primer-template pairs.
Briefly, a mixture containing 5 μL of the 4× primer/DNA duplex solution and 5 μL of 4× polymerase solution was pre-incubated at 37° C. for 2 minutes to ensure formation a DNA polymerase/DNA duplex complex. Simultaneously, 2× solutions of dNTP to provide final concentrations of 100 μM, 200 μM, 500 μM and 1 mM were also pre-incubated at 37° C. for 2 minutes as well. The polymerase reaction in a total volume of 20 μL was initiated by addition of 10 μL of the 2× dNTP solution to the DNA polymerase/DNA duplex mixture. The reactions were run at 37° C. and aliquots (2.5 μL) were removed at specified time points and mixed with 10 μL of a quenching buffer containing 80% formamide, 2 mM EDTA, 1×TBE. Quenched reactions were analyzed by loading 2 μL of a reaction sample onto a 20% denaturing polyacrylamide:gel (19:1 acrylamide:bisacrylamide, 7M urea, 0.4 mm×30 cm×40 cm) made in 1×TBE buffer (90 mM Tris-borate, 2 mM EDTA, pH 8.3). The gel was pre-equilibrated for 2 hours before loading and the reactions were run along with a tracking dye marker containing bromophenol blue (BB) and xylene cyanol (XC) until the BB dye had run ⅔ of the total gel length. For visualization, gels were scanned using a Cyclone Phosphoroimager.

[2] = target: Vent (exo−) DNA polymerase (Thermococcus litoralis, UniProt P30317, D141A/DEL1082-1471/DEL495-1032/E143A); experiment: Single nucleotide incorporation by Vent (exo−) DNA polymerase; format: biochemical
Vent (exo−) DNA polymerase, sequence (P30317 other isoform, or with tags, fused parts or gaps D141A/E143A/DEL495-1032/DEL1082-1471): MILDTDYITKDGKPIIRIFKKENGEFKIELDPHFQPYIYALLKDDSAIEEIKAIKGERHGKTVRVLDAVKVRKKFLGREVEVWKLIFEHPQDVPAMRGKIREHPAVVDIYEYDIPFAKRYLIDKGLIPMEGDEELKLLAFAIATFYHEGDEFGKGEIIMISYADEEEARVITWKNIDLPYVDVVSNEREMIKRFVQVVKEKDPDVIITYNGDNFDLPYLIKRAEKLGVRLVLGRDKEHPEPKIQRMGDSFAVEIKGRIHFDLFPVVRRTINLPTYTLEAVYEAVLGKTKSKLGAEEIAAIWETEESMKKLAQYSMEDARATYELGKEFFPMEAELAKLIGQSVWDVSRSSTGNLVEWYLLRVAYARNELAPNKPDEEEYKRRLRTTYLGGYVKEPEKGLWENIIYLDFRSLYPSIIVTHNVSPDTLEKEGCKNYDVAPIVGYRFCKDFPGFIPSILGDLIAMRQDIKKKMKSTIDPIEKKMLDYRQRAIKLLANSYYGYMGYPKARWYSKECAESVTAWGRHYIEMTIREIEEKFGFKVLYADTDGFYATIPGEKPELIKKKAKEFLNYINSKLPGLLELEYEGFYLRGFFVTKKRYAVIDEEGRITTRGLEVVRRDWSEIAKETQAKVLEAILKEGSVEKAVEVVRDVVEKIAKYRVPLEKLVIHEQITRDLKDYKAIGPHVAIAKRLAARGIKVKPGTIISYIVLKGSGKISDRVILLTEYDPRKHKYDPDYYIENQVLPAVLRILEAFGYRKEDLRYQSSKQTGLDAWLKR
Experimental: (§1) Reaction conditions: Primer (P1) was 5′-labeled with ^33P followed by annealing to a template T1; 125 nM primer/template (P1/T1), [Taq]=0.005 U/μL, [Vent]=0.005 U/μL, [KF]=0.05 U/μL; time intervals: 5, 15, 30, 60, 90 and 120 minutes.
(§2) In the case of Therminator DNA polymerase, the enzyme was obtained from Westburg (NEB) (2 U/μL) and the reactions were carried out in a 10× Thermopol reaction buffer containing 20 mM TRIS.HCl, 10 mM KCl, 2 mM MgSO4, 0.1% Triton X-100, pH 8.8. The final concentration of the Therminator DNA pol in the reaction mixture was 8.33×10^−4 U/μL. The polymerase reaction involving Therminator DNA polymerase or any other thermostable polymerase (Vent (exo^−), Taq DNA polymerase) was carried out in a similar way as the HIV RT reaction with some modifications. The dNTP solutions and the primer/template/DNA polymerase mixture solutions were topped with mineral oil (30-60 μL) and pre-incubated at 70° C. for 2 minutes. The polymerase reactions were performed at 70° C. as well.

[3] = target: T2, Therminator DNA polymerase (Thermococcus sp., UniProt Q56366, A485L/D141A/E143A); experiment: Primer extension by Therminator DNA polymerase (P1/T3, P1/T5); format: biochemical, (9° N-7) Thermococcus sp.
T2 construct: purchased Westburg (NEB)
T2 sequence (Q56366 whole entry D141A/E143A/A485L): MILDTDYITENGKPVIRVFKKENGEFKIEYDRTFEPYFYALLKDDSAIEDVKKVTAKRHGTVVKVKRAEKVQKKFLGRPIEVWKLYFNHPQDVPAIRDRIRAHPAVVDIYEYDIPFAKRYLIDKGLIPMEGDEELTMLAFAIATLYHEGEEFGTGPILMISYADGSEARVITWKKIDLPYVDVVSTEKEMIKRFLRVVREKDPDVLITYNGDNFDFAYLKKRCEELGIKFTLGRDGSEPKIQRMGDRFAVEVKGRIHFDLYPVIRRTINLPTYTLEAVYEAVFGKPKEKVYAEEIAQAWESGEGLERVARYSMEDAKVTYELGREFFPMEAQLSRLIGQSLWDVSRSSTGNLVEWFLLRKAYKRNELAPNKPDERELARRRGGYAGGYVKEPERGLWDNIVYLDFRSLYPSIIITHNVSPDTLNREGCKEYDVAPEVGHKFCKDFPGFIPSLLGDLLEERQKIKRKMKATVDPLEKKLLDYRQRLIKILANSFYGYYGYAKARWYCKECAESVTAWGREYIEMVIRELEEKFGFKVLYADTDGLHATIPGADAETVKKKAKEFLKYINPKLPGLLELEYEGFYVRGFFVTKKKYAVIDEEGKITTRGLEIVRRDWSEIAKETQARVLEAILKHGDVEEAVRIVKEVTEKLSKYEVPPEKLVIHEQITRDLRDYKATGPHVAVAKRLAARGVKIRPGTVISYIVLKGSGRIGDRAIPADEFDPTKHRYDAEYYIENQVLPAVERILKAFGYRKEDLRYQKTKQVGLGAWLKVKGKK
Experimental: Primer extension study with HIV RT and Therminator DNA polymerase was performed in a fashion similar to the single nucleotide incorporation experiments. Two sets of primer/template complexes were used: P1/T3 and P1/T5.
as §2

[4] = target: T3, KF (exo−) DNA polymerase (Escherichia coli, UniProt P00582, D355A/E357A); experiment: Single nucleotide incorporation by KF (exo−) DNA polymerase; format: biochemical; details: 60 minutes
T3 construct: Klenow Fragment (KF) (exo^−) DNA polymerase
T3 sequence (P00582 324-928 D355A/E357A): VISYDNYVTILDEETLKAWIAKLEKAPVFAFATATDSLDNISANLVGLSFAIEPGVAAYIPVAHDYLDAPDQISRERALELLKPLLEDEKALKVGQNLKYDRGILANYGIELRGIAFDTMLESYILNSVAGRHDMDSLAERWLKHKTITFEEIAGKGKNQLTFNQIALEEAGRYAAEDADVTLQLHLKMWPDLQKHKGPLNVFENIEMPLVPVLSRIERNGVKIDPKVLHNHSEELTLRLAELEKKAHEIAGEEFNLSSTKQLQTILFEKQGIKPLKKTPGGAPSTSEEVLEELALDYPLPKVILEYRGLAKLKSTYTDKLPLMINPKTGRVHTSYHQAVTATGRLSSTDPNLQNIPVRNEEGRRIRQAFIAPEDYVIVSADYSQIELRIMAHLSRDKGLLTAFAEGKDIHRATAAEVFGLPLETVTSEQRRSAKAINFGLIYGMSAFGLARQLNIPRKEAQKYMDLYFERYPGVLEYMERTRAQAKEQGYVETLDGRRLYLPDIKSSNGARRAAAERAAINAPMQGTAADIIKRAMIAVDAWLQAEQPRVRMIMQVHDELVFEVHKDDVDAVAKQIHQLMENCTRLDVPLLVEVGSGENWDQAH
Experimental: as §1

[5] = target: T2, Therminator DNA polymerase; experiment: Single nucleotide incorporation by Therminator DNA polymerase; format: biochemical, (9° N-7) Thermococcus sp.
Experimental: as §2

## 2′-deoxy-adenosine-5′-aspartyl-phosphoramidate [Compound 1]
[1]; 500 μM nucleotide concentration, 60 min, P1/T1
  conversion to a n+1 strand: 90%
[1]; substrate concentration decreased 10 fold (from 500 μM)
  incorporation: 24.1%
[2]
  insertion into a growing primer strand: failed to insert
[3]; T3 template
  primer extension: successfully incorporated
[3]; T5 template, overhang of seven thymidine residues
  number of adenine residues incorporated: up to five adenine residues
[4]
  conversion of the primer strand: 32.5%
[5]; 60 min, 500 μM nucleoside concentration
  primer extension: 25.2%
[5]; single nucleotide incorporation, P1/T1
  incorporation as Therminator DNA polymerase substrate: act effectively as alternative substrates
